Ends that are not written are not given here.
How the values were obtained:
Assay type in all cases: cell-based
Escherichia coli MG1655 = details: MG1655, 16 h
Excerpt: (§1) Peptides were synthesized on an automated Liberty Blue synthesizer (CEM Corp., Matthews, NC, USA) using solid-phase Fmoc chemistry with microwave-assisted heating. Two types of resin were selected for peptide synthesis to accommodate different molecular weights. Fmoc-Rink amide aminomethyl-polystyrene resin (ABCR GmbH & Co KG, Karlsruhe, Germany) with a loading capacity of 0.78 mmol/g was used for peptides with a molecular weight of up to 3 kDa. For peptides with a molecular weight exceeding 3 kDa, Fmoc-Rink amide PEG MBHA resin (ABCR GmbH & Co KG, Karlsruhe, Germany) with a loading capacity of 0.48 mmol/g was used. The target products were obtained with a purity of over 95% after purification of the peptides by reversed-phase HPLC on an AKTA Pure 25 M1 system (GE Healthcare Life Sciences, Chicago, IL, USA) equipped with a Zorbax SB-C18 column (Agilent Technologies, Santa Clara, CA, USA) and UV detection. All HPLC-spectra and HRMS-spectra are available at the Supplementary Materials (Figures S1–S23). The antimicrobial activity of synthetic peptides was measured using the standard microdilution method in microtiter plates. Peptides were dissolved in water to a concentration of 1 mM. Cultures of Bacillus subtilis 168 HT and Escherichia coli MG1655 were grown in a shaker at 30 °C in MHB medium (BD Difco, Thermo Fisher Scientific Inc., Waltham, MA, USA) for 16 h. The resulting cultures were diluted 1:50 in fresh MHB medium and grown in a shaker at 37 °C until reaching mid-logarithmic phase. The bacterial cultures were then further diluted in MHB to a concentration of 10^6 CFU/mL.
(§2) Peptides were serially twofold diluted in MHB in 96-well plates to final concentrations ranging from 100 to 0.2 µM, with a total volume of 50 µL per well. Subsequently, 50 µL of bacterial suspension (10^6 CFU/mL) was added to each well. Plates were incubated overnight at 37 °C. Each experiment included positive controls (melittin) and negative controls (without peptide). Antimicrobial activity was assessed by measuring the optical density at 600 nm (OD600) using a microplate reader AMR-100.

Bacillus subtilis 168 HT = details: 16 h
Excerpt: as §1, §2

Expi293F cells = experiment: Cytotoxicity, MTT assay; details: Figure 7 and text, 24 h, 200 to 0.0975 µM, NA = no activity within tested concentration range
Method: For the synthesized peptides, we determined the minimum inhibitory concentration (MIC) against B. subtilis (MICBs) and E. coli (MICEc) and measured cytotoxicity (IC90) in Expi293F cells (human embryonic kidney cells) using an MTT assay (Figure 7A–C, Tables S1–S4).
Peptide cytotoxicity was assessed using the MTT assay on Expi293F cells (human embryonic kidney cells) (Thermo Fisher Scientific, Waltham, MA, USA). Viable cells with active metabolism reduce water-soluble MTT (Abcam, Cambridge, UK) to insoluble formazan, while dead cells lose this ability and produce no signal. The absorbance measured at 600 nm is proportional to the number of living cells. Expi293F cells were seeded in 96-well plates at a density of 1 × 10^5 cells/mL. After 24 h, peptides were added to the wells at final concentrations ranging from 200 to 0.0975 µM. […] Cells were incubated with peptides in a CO2 incubator at 37 °C and 5% CO2 for 24 h. […] Peptide cytotoxicity was evaluated by measuring optical density at 600 nm and 690 nm using a microplate reader AMR-100. Normalized absorbance was defined as (OD600–OD690). The percentage of cell viability was calculated using the formula: % Cell viability = (ODtreated/ODtotal) × 100, where ODtreated is the normalized absorbance of treated cells and ODtotal is the normalized absorbance of non-treated (control) cells.

| Substance | MIC E. coli (Escherichia coli MG1655) | MIC B. subtilis (Bacillus subtilis 168 HT) | IC90 (cytotoxicity, concentration that inhibits 90% of cell growth) (Expi293F cells) |
| --- | --- | --- | --- |
| SLMFITVKKLDNSSRIRIRVGIAIAIQGGPR-NH2 [CR2P2] | 25.0 µM | 25.0 µM | – |
| SFVCKTVKKMNNSAKKGFREGIALAIQGGPR-NH2 [CR2P8] | 6.2 µM | 25.0 µM | – |
| SLIFKIVKKMDDIGKKRIREGIAIPLQGGPR-NH2 [CR2P7] | 50.0 µM | – | – |
| SWLSKTAKKLENSAKKRISEGIAIAIQGGPR-NH2 [cecropin, reference compound] | 0.4 µM | – | 200 µM |
| EKRWRRLIFNYF-NH2 [Hm-AMP2, reference compound] | 3.1 µM | 12.5 µM | – |
| EKGWRRWIFNYF-NH2 [A2R1P5] | 6.2 µM | 6.2 µM | – |
| EKGWRRWIFYCF-NH2 [A2R2P3] | 50.0 µM | 25.0 µM | – |
| EIGWRRRICNYL-NH2 [A2R2P7] | 25.0 µM | 6.2 µM | – |
| SLMFKTVKKMDNSAKKRIREGIAIAIQGGPR-NH2 [CR1P5] | 6.2 µM | – | – |
| EKGRRRWIFYFF-NH2 [A2R3P7] | 12.5 µM | 25.0 µM | – |
| EKGWRRWIFFSF-NH2 [A2R3P6] | 12.5 µM | 12.5 µM | – |
| EKDWPRRILYCF-NH2 [A2R3P10] | – | 50.0 µM | – |
| SLMFKTVKKMDNSVKKRFREGMAIAMQCGPR-NH2 [CR2P9] | 3.1 µM | 25.0 µM | – |
| EKGWLRRIFYCF-NH2 [A2R3P8] | 25.0 µM | 6.2 µM | – |

Source: PMC12649535, “Development of New Antimicrobial Peptides by Directional Selection” (Antibiotics, 2025)
